According to patent publication US10179771B2 (GALAPAGOS NV, priority 2014, dated 2019):

biological target: T1, Recombinant human JAK1 catalytic domain (Homo sapiens, UniProt P23458); assay: JAK1 inhibition assay (polyGT substrate / Ulight-JAK1 peptide assay); format: biochemical; settings: Illustrative Compounds of the invention (Table V)
T1 construct: Recombinant human JAK1 (catalytic domain, amino acids 866-1154; catalog number PV4774); purchased Invitrogen PV4774
Method: Recombinant human JAK1 catalytic domain (amino acids 850-1154; catalog number 08-144) was purchased from Carna Biosciences. 10 ng of JAK1 is incubated with 12.5 μg polyGT substrate (Sigma catalog number P0275) in kinase reaction buffer (15 mM Tris-HCl pH 7.5, 1 mM DTT, 0.01% Tween-20, 10 mM MgCl2, 2 μM non-radioactive ATP, 0.25 ρCi ^33P-gamma-ATP (GE Healthcare, catalog number AH9968) final concentrations) with or without 5 μL containing test compound or vehicle (DMSO, 1% final concentration), in a total volume of 25 μL, in a polypropylene 96-well plate (Greiner, V-bottom). After 45 min at 30° C., reactions are stopped by adding of 25 μL/well of 150 mM phosphoric acid. All of the terminated kinase reaction is transferred to prewashed (75 mM phosphoric acid) 96 well filter plates (Perkin Elmer catalog number 6005177) using a cell harvester (Perkin Elmer). Plates are washed 6 times with 300 μL per well of a 75 mM phosphoric acid solution and the bottom of the plates is sealed. 40 μL/well of Microscint-20 is added, the top of the plates is sealed and readout is performed using the Topcount (Perkin Elmer). Kinase activity is calculated by subtracting counts per min (cpm) obtained in the presence of a positive control inhibitor (10 μM staurosporine) from cpm obtained in the presence of vehicle. The ability of a test compound to inhibit this activity is determined as:
[formula] • RFU test compound=RFU determined for sample with test compound present • RFU control=RFU determined for sample with positive control inhibitor • RFU vehicle=RFU determined in the presence of vehicle
Dose dilution series are prepared for the compounds enabling the testing of dose-response effects in the JAK1 assay and the calculation of the IC50 for each compound. Each compound is routinely tested at concentration of 20 μM followed by a 1/3 serial dilution, 8 points (20 μM-6.67 μM-2.22 μM-740 nM-247 nM-82 nM-27 nM-9 nM) in a final concentration of 1% DMSO. When potency of compound series increased, more dilutions are prepared and/or the top concentration was lowered (e.g. 5 μM, 1 μM).
Recombinant human JAK1 (catalytic domain, amino acids 866-1154; catalog number PV4774) was purchased from Invitrogen. 1 ng of JAK1 was incubated with 20 nM Ulight-JAK1 (tyr1023) peptide (Perkin Elmer catalog number TRF0121) in kinase reaction buffer (25 mM MOPS pH6.8, 0.01% Brij-35, 5 mM MgCl2, 2 mM DTT, 7 μM ATP) with or without 4 μL containing test compound or vehicle (DMSO, 1% final concentration), in a total volume of 20 μL, in a white 384 Opti plate (Perkin Elmer, catalog number 6007290). After 60 min at room temperature, reactions were stopped by adding 20 μL/well of detection mixture (1× detection buffer (Perkin Elmer, catalog number CR97-100C), 0.5 nM Europium-anti-phosphotyrosine (PT66) (Perkin Elmer, catalog number AD0068), 10 mM EDTA). Readout is performed using the Envision with excitation at 320 nm and measuring emission at 615 nm (Perkin Elmer). Kinase activity was calculated by subtracting relative fluorescence units (RFU) obtained in the presence of a positive control inhibitor (10 μM staurosporine) from RFU obtained in the presence of vehicle. The ability of a test compound to inhibit this activity was determined as: Percentage inhibition=((RFU determined for sample with test compound present−RFU determined for sample with positive control inhibitor) divided by (RFU determined in the presence of vehicle−RFU determined for sample with positive control inhibitor))*100.
Dose dilution series were prepared for the compounds enabling the testing of dose-response effects in the JAK1 assay and the calculation of the IC50 for the compound. Each compound is routinely tested at concentration of 20 μM followed by a 1/5 serial dilution, 10 points in a final concentration of 1% DMSO. When potency of compound series increases, more dilutions are prepared and/or the top concentration are lowered (e.g. 5 μM, 1 μM). […]

T1 sequence (P23458 866-1154): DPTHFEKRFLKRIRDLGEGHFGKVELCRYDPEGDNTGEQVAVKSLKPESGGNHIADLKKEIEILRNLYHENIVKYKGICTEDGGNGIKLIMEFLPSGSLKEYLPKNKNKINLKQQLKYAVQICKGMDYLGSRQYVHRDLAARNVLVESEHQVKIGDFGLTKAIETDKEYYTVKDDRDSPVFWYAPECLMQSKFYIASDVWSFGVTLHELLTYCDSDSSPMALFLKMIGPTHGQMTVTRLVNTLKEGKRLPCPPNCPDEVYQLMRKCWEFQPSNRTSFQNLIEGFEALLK

| Compound | IC50 |
| --- | --- |
| CN(c1cc(NC(=O)[C@H]2C[C@H]2F)c2ncn(C)c2c1)c1ccc(C#N)cc1F [Cpd 15, (1R,2R)-N-[6-(4-cyano-2-fluoro-N-methyl-anilino)-1-methyl-benzimidazol-4-yl]-2-fluoro-cyclopropanecarboxamide] | 0.1 to 50 nM |
| CCc1cc(C#N)cc(F)c1Nc1cc(NC(=O)C2CC2)c2ncn(C)c2c1 [Cpd 2, N-(6-(4-cyano-2-ethyl-6-fluorophenylamino)-1-methyl-1H-benzo[d]imidazol-4-yl)cyclopropanecarboxamide] | 0.1 to 50 nM |
| CCc1cc(C#N)ncc1N(C)c1cc(NC(=O)C2CC2)c2ncn(C)c2c1 [Cpd 1, N-(6-((6-cyano-4-ethylpyridin-3-yl)(methyl)amino)-1-methyl-1H-benzo[d]imidazol-4-yl)cyclopropanecarboxamide] | 0.1 to 50 nM |
| CN(c1cc(NC(=O)[C@H]2C[C@H]2F)c2ncn(C)c2c1)c1c(F)cc(C#N)cc1Cl [Cpd 11, (1R,2R)-N-[6-(2-chloro-4-cyano-6-fluoro-N-methyl-anilino)-1-methyl-benzimidazol-4-yl]-2-fluoro-cyclopropanecarboxamide] | 0.1 to 50 nM |
| CCc1cc(C#N)ccc1Oc1cc(NC(=O)[C@H]2C[C@H]2F)c2ncn(C)c2c1 [Cpd 10, (1R,2R)-N-[6-(4-cyano-2-ethyl-phenoxy)-1-methyl-benzimidazol-4-yl]-2-fluoro-cyclopropanecarboxamide] | 0.1 to 50 nM |

Other lines, results leading:

| IC50 | Compound |
| --- | --- |
| 0.1 to 50 nM | Cc1cc(C#N)ncc1Oc1cc(NC(=O)[C@H]2C[C@H]2F)c2ncn(C)c2c1 [Cpd 20, (1R,2R)-N-[6-[(6-cyano-4-methyl-3-pyridyl)oxy]-1-methyl-benzimidazol-4-yl]-2-fluoro-cyclopropanecarboxamide] |
| 0.1 to 50 nM | CCc1cc(C(N)=O)ncc1N(C)c1cc(NC(=O)C2CC2)c2ncn(C)c2c1 [Cpd 24, 5-((4-(cyclopropanecarboxamido)-1-methyl-1H-benzo[d]imidazol-6-yl)(methyl)amino)-4-ethylpicolinamide] |
| 0.1 to 50 nM | CCS(=O)(=O)c1ccc(N(C)c2cc(NC(=O)[C@H]3C[C@H]3F)c3ncn(C)c3c2)c(C)c1 [Cpd 27, (1R,2R)-N-[6-(4-ethylsulfonyl-N,2-dimethyl-anilino)-1-methyl-benzimidazol-4-yl]-2-fluoro-cyclopropanecarboxamide] |
| 0.1 to 50 nM | Cc1cc(C#N)ncc1Oc1cc(NC(=O)NC(C)C)c2ncn(C)c2c1 [Cpd 38, 1-[6-[(6-cyano-4-methyl-3-pyridyl)oxy]-1-methyl-benzimidazol-4-yl]-3-isopropyl-urea] |
| > 500 nM | Cc1cc(C#N)ncc1Oc1cc(NC(=O)N2CC(O)C2)c2ncn(C)c2c1 [Cpd 36, N-[6-[(6-cyano-4-methyl-3-pyridyl)oxy]-1-methyl-benzimidazol-4-yl]-3-hydroxy-azetidine-1-carboxamide] |
| > 500 nM | Cc1cc(C#N)ncc1Oc1cc(N(C)C)c2ncn(C)c2c1 [Cpd 35, 5-[7-(dimethylamino)-3-methyl-benzimidazol-5-yl]oxy-4-methyl-pyridine-2-carbonitrile] |
